± gives the standard deviation of the averaged measurements.
Experiments:
Assay in all cases: level (log10 ratio to DMSO vehicle control); higher = higher biomarker level / cell amount than vehicle control
Details in all cases: in DMSO
[1] = compound: OCC(F)(F)OC(F)(F)C(F)(F)OC(F)(F)CO [1H,1H,8H,8H-Perfluoro-3,6-dioxaoctane-1,8-diol]
Protocol: (§1)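 BioMAP Diversity Plus panel of 12 human primary cell co-culture systems (3C, 4H, LPS, SAg, BT, BF4T, BE3C, CASM3C, HDF3CGF, KF3CT, MyoF, Mphg). Compounds were added 1 h before stimulation and left for 24 h (MyoF 48 h; BT 72 h for soluble read-outs or 6 d for IgG). Biomarkers were read by ELISA, cytotoxicity by SRB, PBMC viability and proliferation by Alamar Blue. Each well value was divided by the mean of 8 DMSO control wells on the same plate and log10 transformed; duplicate blinded samples were tested at 4 concentrations.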

Perfluoropropanoic acid = compound: O=C(O)C(F)(F)C(F)(F)F [Perfluoropropanoic acid]
Protocol: as §1

Perfluoro-1-iodohexane = compound: FC(F)(F)C(F)(F)C(F)(F)C(F)(F)C(F)(F)C(F)(F)I [Perfluoro-1-iodohexane]
Protocol: as §1

[2] = compound: FC(F)(F)C(F)(F)C(F)(F)C(F)(F)C(F)(F)CCI [1-Iodo-1H,1H,2H,2H-perfluoroheptane]
Protocol: as §1

[3] = compound: OCCC(F)(F)C(F)(F)C(F)(F)C(F)(F)C(F)(F)C(F)(F)F [6:2 Fluorotelomer alcohol]
Protocol: as §1

Perfluorobutanoic acid = compound: O=C(O)C(F)(F)C(F)(F)C(F)(F)F [Perfluorobutanoic acid]
Protocol: as §1

[4] = compound: O=C(O)C(F)(F)OC(F)(F)C(F)(F)OC(F)(F)F [Perfluoro-3,6-dioxaheptanoic acid]
Protocol: as §1

Test System | level (log10) ([1]; 6700 nM) | level (log10) ([1]; 20000 nM) | level (log10) ([1]; 60000 nM) | level (log10) (Perfluoropropanoic acid; 6700 nM) | level (log10) (Perfluoropropanoic acid; 20000 nM) | level (log10) (Perfluoropropanoic acid; 60000 nM) | level (log10) (Perfluoro-1-iodohexane; 6700 nM) | level (log10) (Perfluoro-1-iodohexane; 20000 nM) | level (log10) (Perfluoro-1-iodohexane; 60000 nM) | level (log10) ([2]; 6700 nM) | level (log10) ([2]; 20000 nM) | level (log10) ([2]; 60000 nM) | level (log10) ([3]; 6700 nM) | level (log10) ([3]; 20000 nM) | level (log10) (Perfluorobutanoic acid; 6700 nM) | level (log10) (Perfluorobutanoic acid; 20000 nM) | level (log10) (Perfluorobutanoic acid; 60000 nM) | level (log10) ([4]; 6700 nM) | level (log10) ([4]; 20000 nM) | level (log10) ([4]; 60000 nM)
3C:CCL2/MCP-1 | 0.0005 ± 0.018 | 0.009 ± 0.0028 | 0.0145 ± 0.05 | -0.041 ± 0.048 | -0.0145 ± 0.049 | 0.0435 ± 0.073 | -0.0105 ± 0.0021 | -0.006 ± 0.02 | 0.003 ± 0.047 | -0.0135 ± 0.0021 | -0.009 ± 0.0099 | 0.0045 ± 0.025 | 0.008 ± 0.014 | -0.008 ± 0.0071 | 0.007 ± 0.0071 | 0.0075 ± 0.011 | 0.028 ± 0.025 | -0.023 ± 0.044 | -0.015 ± 0.013 | -0.023 ± 0.021
3C:CD54/ICAM-1 | -0.0015 ± 0.016 | -0.0005 ± 0.0064 | -0.0035 ± 0.011 | -0.0365 ± 0.012 | -0.0085 ± 0.0064 | 0.017 ± 0.02 | 0 ± 0.0057 | 0.0025 ± 0.0078 | 0.012 ± 0.0014 | 0.0055 ± 0.021 | 0.0015 ± 0.0092 | 0.0085 ± 0.005 | -0.006 ± 0.013 | -0.0185 ± 0.044 | -0.0185 ± 0.019 | -0.029 ± 0.017 | -0.03 ± 0.024 | -0.0325 ± 0.0064 | -0.0165 ± 0.019 | 0.0035 ± 0.005
3C:CD62E/E-Selectin | 0.0085 ± 0.0035 | 0.003 | -0.003 ± 0.0085 | -0.01 ± 0.013 | -0.005 ± 0.0085 | 0.0105 ± 0.013 | -0.0025 ± 0.00071 | -0.0165 ± 0.0035 | -0.0025 ± 0.029 | -0.005 ± 0.0071 | 0.004 ± 0.011 | 0.008 ± 0.018 | -0.0075 ± 0.043 | -0.024 ± 0.042 | -0.0155 ± 0.011 | 0.0075 ± 0.012 | -0.0185 ± 0.0035 | -0.0045 ± 0.016 | -0.02 ± 0.017 | 0.01 ± 0.0071
3C:CD106/VCAM-1 | -0.0365 ± 0.021 | -0.0295 ± 0.019 | -0.016 ± 0.024 | -0.025 ± 0.0014 | -0.0145 ± 0.005 | 0.004 ± 0.0014 | 0.003 ± 0.024 | 0.0075 ± 0.018 | 0 ± 0.047 | -0.01 ± 0.0028 | -0.02 ± 0.0042 | -0.0205 ± 0.022 | 0.0025 ± 0.0092 | -0.0075 ± 0.0021 | -0.002 ± 0.0028 | -0.009 ± 0.0071 | -0.0225 ± 0.011 | -0.0185 ± 0.019 | -0.008 ± 0.0071 | -0.001 ± 0.018
3C:CD141/Thrombomodulin | -0.003 ± 0.013 | -0.0075 ± 0.015 | 0.01 ± 0.0085 | -0.016 ± 0.031 | 0.011 ± 0.021 | 0.0155 ± 0.0035 | -0.025 ± 0.013 | -0.023 ± 0.014 | -0.0015 ± 0.005 | -0.0385 ± 0.025 | -0.047 ± 0.031 | -0.031 ± 0.0057 | -0.019 ± 0.037 | -0.0445 ± 0.021 | -0.0095 ± 0.026 | -0.0105 ± 0.026 | -0.0105 ± 0.04 | -0.037 ± 0.04 | -0.0105 ± 0.044 | -0.0255 ± 0.077
3C:CD142/Tissue Factor | 0.0175 ± 0.0064 | 0.011 ± 0.021 | -0.0045 ± 0.0035 | -0.008 ± 0.018 | -0.015 ± 0.0085 | 0.0065 ± 0.0035 | 0.0025 ± 0.032 | 0.0005 ± 0.013 | 0.0185 ± 0.022 | 0.003 ± 0.016 | 0.0155 ± 0.00071 | 0.0295 ± 0.00071 | -0.003 ± 0.044 | -0.014 ± 0.025 | 0.011 ± 0.0042 | 0.0085 ± 0.021 | 0.0035 ± 0.043 | -0.0295 ± 0.047 | -0.025 ± 0.04 | -0.053 ± 0.0014
BE3C:Keratin 8/18 | -0.0105 ± 0.0078 | -0.003 ± 0.016 | -0.0085 ± 0.013 | -0.0185 ± 0.0064 | -0.016 ± 0.028 | 0.017 ± 0.023 | -0.007 ± 0.037 | -0.0105 ± 0.0078 | 0.005 ± 0.024 | -0.019 ± 0.02 | -0.009 ± 0.034 | -0.02 ± 0.0071 | -0.0095 ± 0.0064 | -0.0115 ± 0.00071 | -0.005 ± 0.017 | 0.003 ± 0.0071 | -0.0195 ± 0.016 | -0.033 ± 0.041 | -0.0085 ± 0.022 | -0.03 ± 0.017
BE3C:MMP-1 | 0.0105 ± 0.011 | -0.013 ± 0.021 | 0.009 ± 0.052 | -0.02 ± 0.041 | 0.001 ± 0.0014 | 0.03 ± 0.064 | -0.003 ± 0.0085 | -0.0065 ± 0.011 | 0.043 ± 0.016 | 0.004 ± 0.023 | 0.074 ± 0.03 | 0.162 ± 0.0078 | -0.0245 ± 0.036 | -0.0195 ± 0.028 | -0.004 ± 0.034 | -0.0075 ± 0.013 | 0.021 ± 0.014 | -0.042 ± 0.048 | -0.0015 ± 0.057 | 0.0145 ± 0.037
BE3C:MMP-9 | -0.0115 ± 0.028 | 0.02 ± 0.04 | -0.006 ± 0.013 | 0.0075 ± 0.025 | 0.0025 ± 0.018 | 0.0265 ± 0.012 | 0.0075 ± 0.0092 | 0.013 ± 0.0028 | 0.001 ± 0.023 | -0.0125 ± 0.0092 | 0.026 ± 0.0099 | 0.0525 ± 0.021 | 0.0055 ± 0.0078 | -0.0215 ± 0.022 | -0.0075 ± 0.021 | -0.007 ± 0.035 | -0.0145 ± 0.015 | -0.0395 ± 0.005 | -0.026 ± 0.0042 | -0.019 ± 0.047
BE3C:PAI-I | -0.0105 ± 0.005 | -0.0235 ± 0.0092 | 0.01 ± 0.021 | -0.029 ± 0.045 | -0.0065 ± 0.057 | 0.017 ± 0.052 | -0.0245 ± 0.04 | -0.0045 ± 0.025 | 0.006 ± 0.037 | -0.025 ± 0.061 | -0.0105 ± 0.056 | 0.008 ± 0.1 | -0.0205 ± 0.03 | -0.025 ± 0.048 | -0.011 ± 0.011 | -0.025 ± 0.023 | -0.0085 ± 0.0035 | -0.037 ± 0.055 | 0.0125 ± 0.053 | 0.0055 ± 0.018
BE3C:SRB | -0.005 ± 0.0085 | -0.0015 ± 0.0064 | -0.0045 ± 0.012 | -0.0015 ± 0.0021 | -0.003 | 0.0035 ± 0.00071 | -0.0125 ± 0.005 | 0.001 ± 0.017 | 0 ± 0.013 | -0.003 ± 0.0057 | -0.0105 ± 0.0021 | -0.0085 ± 0.012 | -0.0025 ± 0.0021 | -0.0045 ± 0.0021 | -0.009 ± 0.011 | 0 ± 0.0042 | -0.0005 ± 0.011 | 0.0005 ± 0.0064 | -0.0025 ± 0.00071 | 0.0015 ± 0.0064
BE3C:tPA | -0.014 ± 0.021 | -0.0255 ± 0.03 | -0.0225 ± 0.00071 | -0.016 ± 0.0042 | -0.028 ± 0.028 | 0 ± 0.0014 | -0.008 ± 0.028 | -0.008 ± 0.023 | 0.0125 ± 0.028 | -0.0055 ± 0.074 | 0.0465 ± 0.073 | 0.0495 ± 0.047 | -0.0135 ± 0.018 | -0.004 ± 0.0057 | -0.025 ± 0.025 | -0.025 ± 0.04 | -0.037 ± 0.0099 | -0.025 ± 0.0099 | -0.0485 ± 0.0021 | -0.03 ± 0.033
BE3C:uPA | -0.01 ± 0.0042 | 0 ± 0.037 | -0.016 ± 0.0057 | -0.0165 ± 0.044 | 0.0015 ± 0.044 | 0.003 ± 0.041 | 0.0175 ± 0.015 | -0.0005 ± 0.0035 | 0.001 ± 0.0085 | 0.013 ± 0.011 | -0.0005 ± 0.019 | -0.0025 ± 0.033 | -0.004 | -0.012 ± 0.0028 | -0.0065 ± 0.026 | -0.007 ± 0.011 | -0.015 ± 0.014 | -0.0495 ± 0.079 | -0.028 ± 0.069 | -0.011 ± 0.041
CASM3C:CCL2/MCP-1 | -0.026 ± 0.041 | -0.022 ± 0.017 | -0.017 ± 0.013 | 0.0025 ± 0.012 | -0.0025 ± 0.019 | 0.0055 ± 0.00071 | 0.006 ± 0.0099 | -0.0085 ± 0.019 | 0.0015 ± 0.049 | -0.0045 ± 0.011 | -0.006 ± 0.028 | -0.001 ± 0.037 | -0.0205 ± 0.00071 | -0.019 ± 0.0028 | -0.0125 ± 0.0078 | -0.025 ± 0.027 | -0.001 ± 0.041 | -0.0445 ± 0.09 | -0.0325 ± 0.067 | -0.039 ± 0.095

From the supplement of paper PMC10331698
